Molecular target: T1, Recombinant (1-346) HPK1 (h) (Homo sapiens, UniProt Q92918)
T1 construct: Recombinant (1-346) HPK1 (h) is incubated with 8 mM MOPS pH 7.0
T1 sequence (Q92918 1-346): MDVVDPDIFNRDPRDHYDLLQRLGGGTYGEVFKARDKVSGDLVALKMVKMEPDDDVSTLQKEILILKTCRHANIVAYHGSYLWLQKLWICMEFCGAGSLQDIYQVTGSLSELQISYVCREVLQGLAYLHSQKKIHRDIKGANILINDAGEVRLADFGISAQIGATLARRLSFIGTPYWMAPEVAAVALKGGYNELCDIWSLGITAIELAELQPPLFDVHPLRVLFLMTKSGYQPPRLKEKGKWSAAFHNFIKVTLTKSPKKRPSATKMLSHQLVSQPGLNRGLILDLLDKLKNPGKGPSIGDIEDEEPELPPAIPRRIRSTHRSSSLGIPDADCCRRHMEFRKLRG
Experiment: HPK1 human STE kinase enzymatic radiometric assay
Assay type: biochemical
Details: read-out: HPK1 IC50 nM Range
Method: (a) HPK1 Human STE Kinase Enzymatic Radiometric Assay
A stock solution of 10 mM of test compound is prepared in DMSO. The compound plate was prepared by 3-fold and 9-point serial dilutions. Recombinant (1-346) HPK1 (h) is incubated with 8 mM MOPS pH 7.0, 0.2 mM EDTA, 0.33 mg/mL myelin basic protein, 10 mM MgAcetate and [gamma-33P]-ATP (specific activity and concentration as required). The reaction is initiated by the addition of the Mg/ATP mix. After incubation for 40 minutes at RT, the reaction is stopped by the addition of phosphoric acid to a concentration of 0.5%, 10 μL of the reaction is then spotted onto a P30 filtermat and washed four times for 4 minutes in 0.425% phosphoric acid and once in methanol prior to drying and scintillation counting. For more details of kinase assay protocols, see: Gao, Y. et. al.; Biochem J.451 (2): 313-328, 2013.

IC50	Structure (SMILES)
0.1 to 10 nM	Cc1c[nH]c(=O)c2ccc(-c3nc(-c4ccc(N5CCN(CCCC(F)F)CC5)cc4)c(F)nc3N)cc12 [Example I-73, 6-(3-amino-6-(4-(4-(4,4-difluorobutyl)piperazin-1-yl)phenyl)-5-fluoropyrazin-2-yl)-4-methylisoquinolin-1(2H)-one]
11 to 100 nM	Cc1nc2cc(-c3nc(-c4ccc([C@]56C[C@H]5CN(C)C6)cc4)c(F)nc3N)ccc2c(=O)[nH]1 [Example I-74, 7-(3-amino-5-fluoro-6-(4-((1S,5R)-3-methyl-3-azabicyclo[3.1.0]hexan-1-yl)phenyl)pyrazin-2-yl)-2-methylquinazolin-4(3H)-one]
11 to 100 nM	Cc1c[nH]c(=O)c2ccc(-c3nc(-c4ccc([C@]56C[C@H]5CN(C)C6)cc4)c(F)nc3N)cc12 [Example I-75, 6-(3-amino-5-fluoro-6-(4-((1S,5R)-3-methyl-3-azabicyclo[3.1.0]hexan-1-yl)phenyl)pyrazin-2-yl)-4-methylisoquinolin-1(2H)-one]
11 to 100 nM	Cc1nc2cc(-c3nc(-c4ccc(N5CCN(C6CCC6)CC5)cc4)c(F)nc3N)ccc2c(=O)[nH]1 [Example I-76, 7-(3-amino-6-(4-(4-cyclobutylpiperazin-1-yl)phenyl)-5-fluoropyrazin-2-yl)-2-methylquinazolin-4(3H)-one]
11 to 100 nM	Cc1nc2cc(-c3nc(-c4ccc(N5CCOCC5)c(CN(C)C)c4)c(F)nc3N)ccc2c(=O)[nH]1 [Example I-77, 7-(3-amino-6-(3-((dimethylamino)methyl)-4-morpholinophenyl)-5-fluoropyrazin-2-yl)-2-methylquinazolin-4(3H)-one]
101 to 1000 nM	Cc1nc2cc(-c3nc(-c4ccc(N5CCN(CC6CC6)CC5)cc4)c(F)nc3N)ccc2c(=O)[nH]1 [Example I-79, 7-(3-amino-6-(4-(4-(cyclopropylmethyl)piperazin-1-yl)phenyl)-5-fluoropyrazin-2-yl)-2-methylquinazolin-4(3H)-one]
11 to 100 nM	Cc1nc2cc(-c3nc(-c4ccc(N5CCN(CCCC(F)F)CC5)cc4)c(F)nc3N)ccc2c(=O)[nH]1 [Example I-81, 7-(3-amino-6-(4-(4-(4,4-difluorobutyl)piperazin-1-yl)phenyl)-5-fluoropyrazin-2-yl)-2-methylquinazolin-4(3H)-one]
0.1 to 10 nM	Nc1nc(F)c(-c2ccc(N3CCN(CCC(F)F)CC3)cc2)nc1-c1cc(F)c2c(c1)CCNC2=O [Example I-82, 6-(3-amino-6-(4-(4-(3,3-difluoropropyl)piperazin-1-yl)phenyl)-5-fluoropyrazin-2-yl)-8-fluoro-3,4-dihydroisoquinolin-1(2H)-one]
0.1 to 10 nM	Nc1nc(F)c(-c2ccc(N3CCN(CC4CC4)CC3)cc2)nc1-c1ccc2c(=O)[nH]cc(F)c2c1 [Example I-84, 6-(3-amino-6-(4-(4-(cyclopropylmethyl)piperazin-1-yl)phenyl)-5-fluoropyrazin-2-yl)-4-fluoroisoquinolin-1(2H)-one]
11 to 100 nM	Nc1nc(F)c(-c2ccc(N3CCN(CCC(F)F)CC3)cc2)nc1-c1ccc2c(=O)[nH]ccc2c1 [Example I-86, 6-(3-amino-6-(4-(4-(3,3-difluoropropyl)piperazin-1-yl)phenyl)-5-fluoropyrazin-2-yl)isoquinolin-1(2H)-one]
> 1000 nM	Cc1c[nH]c(=O)c2ccc(-c3nc(-c4ccc(N5CCN(CCC(F)F)CC5)cc4)c(F)nc3N)cc12 [Example I-87, 6-(3-amino-6-(4-(4-(3,3-difluoropropyl)piperazin-1-yl)phenyl)-5-fluoropyrazin-2-yl)-4-methylisoquinolin-1(2H)-one]
11 to 100 nM	CN(C)Cc1cc(-c2nc(-c3cc(F)c4c(c3)CCNC4=O)c(N)nc2F)ccc1N1CCOCC1 [Example I-88, 6-(3-amino-6-(3-((dimethylamino)methyl)-4-morpholinophenyl)-5-fluoropyrazin-2-yl)-8-fluoro-3,4-dihydroisoquinolin-1(2H)-one]
0.1 to 10 nM	CN(C)Cc1cc(-c2nc(-c3ccc4c(=O)[nH]cc(F)c4c3)c(N)nc2F)ccc1N1CCOCC1 [Example I-89, 6-(3-amino-6-(3-((dimethylamino)methyl)-4-morpholinophenyl)-5-fluoropyrazin-2-yl)-4-fluoroisoquinolin-1(2H)-one]
0.1 to 10 nM	CC(C)N1CCN(c2ccc(-c3nc(-c4cc(F)c5c(=O)[nH]cc(Cl)c5c4)c(N)nc3F)cc2)CC1 [Example I-90, 6-(3-amino-5-fluoro-6-(4-(4-isopropylpiperazin-1-yl)phenyl)pyrazin-2-yl)-4-chloro-8-fluoroisoquinolin-1(2H)-one]
0.1 to 10 nM	C[C@@H]1CN(c2ccc(-c3nc(-c4ccc5c(=O)[nH]cc(F)c5c4)c(N)nc3F)cc2)C[C@H](C)N1C [Example I-93, 6-(3-amino-5-fluoro-6-(4-((3R,5S)-3,4,5-trimethylpiperazin-1-yl)phenyl)pyrazin-2-yl)-4-fluoroisoquinolin-1(2H)-one]
11 to 100 nM	Cc1nc2cc(-c3nc(-c4ccc(N5C[C@@H](C)N(C)[C@@H](C)C5)cc4)c(F)nc3N)ccc2c(=O)[nH]1 [Example I-95, 7-(3-amino-5-fluoro-6-(4-((3R,5S)-3,4,5-trimethylpiperazin-1-yl)phenyl)pyrazin-2-yl)-2-methylquinazolin-4(3H)-one]
0.1 to 10 nM	Nc1nc(F)c(-c2ccc([C@]34C[C@H]3CN(C3CCC3)C4)cc2)nc1-c1ccc2c(=O)[nH]cc(F)c2c1 [Example I-99, 6-(3-amino-6-(4-((1S,5R)-3-cyclobutyl-3-azabicyclo[3.1.0]hexan-1-yl)phenyl)-5-fluoropyrazin-2-yl)-4-fluoroisoquinolin-1(2H)-one]
0.1 to 10 nM	Cc1[nH]c(=O)c2ccc(-c3nc(-c4ccc(N5CCOCC5)c(CN(C)C)c4)c(F)nc3N)cc2c1F [Example I-101, 6-(3-amino-6-(3-((dimethylamino)methyl)-4-morpholinophenyl)-5-fluoropyrazin-2-yl)-4-fluoro-3-methylisoquinolin-1(2H)-one]
0.1 to 10 nM	Cc1[nH]c(=O)c2c(F)cc(-c3nc(-c4ccc(N5CCN(C(C)C)CC5)cc4)c(F)nc3N)cc2c1Cl [Example I-102, 6-(3-amino-5-fluoro-6-(4-(4-isopropylpiperazin-1-yl)phenyl)pyrazin-2-yl)-4-chloro-8-fluoro-3-methylisoquinolin-1(2H)-one]
0.1 to 10 nM	Cc1[nH]c(=O)c2c(F)cc(-c3nc(-c4ccc(C5CCOCC5)c(CN(C)C)c4)c(F)nc3N)cc2c1Cl [Example I-104, 6-(3-amino-6-(3-((dimethylamino)methyl)-4-(tetrahydro-2H-pyran-4-yl)phenyl)-5-fluoropyrazin-2-yl)-4-chloro-8-fluoro-3-methylisoquinolin-1(2H)-one]
0.1 to 10 nM	CN(C)Cc1cc(-c2nc(-c3ccc4c(c3)C3(CC3)CNC4=O)c(N)nc2F)ccc1N1CCOCC1 [Example I-105, 6′-(3-amino-6-(3-((dimethylamino)methyl)-4-morpholinophenyl)-5-fluoropyrazin-2-yl)-2′,3′-dihydro-1′H-spiro[cyclopropane-1,4′-isoquinolin]-1′-one]
0.1 to 10 nM	Cc1[nH]c(=O)c2ccc(-c3nc(-c4ccc(N5CCN(CC6CC6)CC5)cc4)c(F)nc3N)cc2c1F [Example I-106, 6-(3-amino-6-(4-(4-(cyclopropylmethyl)piperazin-1-yl)phenyl)-5-fluoropyrazin-2-yl)-4-fluoro-3-methylisoquinolin-1(2H)-one]
0.1 to 10 nM	Cc1[nH]c(=O)c2c(F)cc(-c3nc(-c4ccc(N5CCN(CC6CC6)CC5)cc4)c(F)nc3N)cc2c1Cl [Example I-107, 6-(3-amino-6-(4-(4-(cyclopropylmethyl)piperazin-1-yl)phenyl)-5-fluoropyrazin-2-yl)-4-chloro-8-fluoro-3-methylisoquinolin-1(2H)-one]
0.1 to 10 nM	Nc1nc(F)c(-c2ccc(N3CCN(CC4CC4)CC3)cc2)nc1-c1ccc2c(c1)C1(CC1)CNC2=O [Example I-108, 6′-(3-amino-6-(4-(4-(cyclopropylmethyl)piperazin-1-yl)phenyl)-5-fluoropyrazin-2-yl)-2′,3′-dihydro-1′H-spiro[cyclopropane-1,4′-isoquinolin]-1′-one]
0.1 to 10 nM	Cc1[nH]c(=O)c2c(F)cc(-c3nc(-c4ccc(N5CCOCC5)c(CN(C)C)c4)c(F)nc3N)cc2c1Cl [Example I-109, 6-(3-amino-6-(3-((dimethylamino)methyl)-4-morpholinophenyl)-5-fluoropyrazin-2-yl)-4-chloro-8-fluoro-3-methylisoquinolin-1(2H)-one]
0.1 to 10 nM	Cc1[nH]c(=O)c2c(F)cc(-c3nc(-c4ccc(N5CCN(C(C)C)CC5)cc4)c(F)nc3N)cc2c1F [Example I-111, 6-(3-amino-5-fluoro-6-(4-(4-isopropylpiperazin-1-yl)phenyl)pyrazin-2-yl)-4,8-difluoro-3-methylisoquinolin-1(2H)-one]
0.1 to 10 nM	Nc1nc(F)c(-c2ccc(N3CCOCC3)c(CN3CCCC3)c2)nc1-c1cc(F)c2c(c1)CCNC2=O [Example I-112, 6-(3-amino-5-fluoro-6-(4-morpholino-3-(pyrrolidin-1-ylmethyl)phenyl)pyrazin-2-yl)-8-fluoro-3,4-dihydroisoquinolin-1(2H)-one]

Source: patent US20240425479A1, “HALO-SUBSTITUTED AMINO AZA-HETEROARYL COMPOUNDS AS INHIBITORS OF THE HAEMATOPOIETIC PROGENITOR KINASE 1 (HPK1)” (priority 2021, published 2024)
